# In patent publication US6638923B2, “Estra-1,3,5(10),16-tetraene derivatives” (Kyowa Hakko Kogyo Co., Ltd., priority 1999, dated 2003):
# Biological target: T1, recombinant human estrone sulfatase (Homo sapiens, UniProt P08842)
# T1 construct: made in house; host or cells: CHO (Chinese hamster ovary) cells
# T1 sequence (P08842 22-583): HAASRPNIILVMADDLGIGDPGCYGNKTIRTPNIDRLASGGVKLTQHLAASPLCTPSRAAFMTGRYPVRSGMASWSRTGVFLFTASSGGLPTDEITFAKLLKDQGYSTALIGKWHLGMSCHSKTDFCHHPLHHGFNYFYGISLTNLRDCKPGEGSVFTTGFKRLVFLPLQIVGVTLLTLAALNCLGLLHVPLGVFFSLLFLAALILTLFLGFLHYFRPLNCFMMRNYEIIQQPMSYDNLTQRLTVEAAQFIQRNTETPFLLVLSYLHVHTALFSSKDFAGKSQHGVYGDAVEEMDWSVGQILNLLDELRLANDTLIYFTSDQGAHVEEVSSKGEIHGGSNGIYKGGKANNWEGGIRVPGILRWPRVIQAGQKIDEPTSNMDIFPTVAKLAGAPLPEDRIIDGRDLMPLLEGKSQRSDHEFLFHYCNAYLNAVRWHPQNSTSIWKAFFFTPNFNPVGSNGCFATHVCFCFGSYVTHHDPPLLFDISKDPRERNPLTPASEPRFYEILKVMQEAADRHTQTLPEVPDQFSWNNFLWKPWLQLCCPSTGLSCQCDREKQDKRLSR
# Experiment: Estrone sulfatase (steroid sulfatase) inhibition test
# Format: biochemical
# Conditions: test compound 1 μM; [6,7-3H] estrone sulfate 3.3 nmol/L; pH 7; 1 hour at 37° C.; read-out: Inhibitory activity against estrone sulfatase, Inhibition % (1 μM)
# Method: Estrone Sulfatase (Steroid Sulfatase) Inhibition Test:
# [6,7-^3H] Estrone sulfate (final concentration, 3.3 nmol/L; 300,000 dpm/tube), recombinant human estrone sulfatase (33 ng/tube) and an estra-1,3,5(10),16-tetraene derivative (final concentration, 1 μmol/L) were added to a phosphate buffer (pH 7; final volume, 0.15 mL) containing 0.25 mol/L of sucrose and 0.04 mol/L of nicotinamide, and allowed to enzymatically react for 1 hour at 37° C. The recombinant human estrone sulfatase was obtained by transforming a human estrone sulfatase gene into CHO (Chinese hamster ovary) cells and expressing it in the cells, and used after partial purification. After completion of the enzyme reaction, the reaction solution was mixed with toluene (0.5 mL), followed by stirring, and the mixture was centrifuged for 5 minutes at 9,000 rpm. Thereafter, the toluene extraction layer was separated and the radioactivity of the resulting [^3H]-estrone was measured with a liquid scintillation counter. The measurement was carried out by duplication, and the fluctuation within the assay was 10% or less. An enzyme reaction in the absence of the test compound was carried out at the same time. The activity of the test compound to inhibit estrone sulfatase was calculated by the following formula.
# Inhibitory activity against estrone sulfatase (%)=100−(100×(A/B)) […]
smiles,measurement,value
"C[C@]12CC[C@@H]3c4ccc(O)cc4CC[C@H]3[C@@H]1CC=C2C(=O)O [Compound 1, 3-hydroxyestra-1,3,5(10), 16-tetraene-17-carboxylic acid]",inhibition at 1 µM,48%
